Data: PMC11274128, “Modification and Synergistic Studies of a Novel Frog Antimicrobial Peptide against Pseudomonas aeruginosa Biofilms” (Antibiotics, 2024)
Bridge positions count the residues as written; N and C are the ends. Ends that are not written are not given here.

Each sequence was assayed on E. faecalis (NCTC 12697) (assay: microbe, parasite or virus in culture). Conditions: planktonic E. faecalis NCTC 12697; 37 °C; nine repeats of three independent experiments.
Assay type: cell-based, Enterococcus faecalis
Description: (§1) The minimum inhibitory concentration (MIC) is the minimum concentration of an antimicrobial agent that prevents the visible growth of a bacterium or bacteria. The MIC is an important piece of data for research on new antimicrobial agents and helps in the effective selection of antibiotics to improve the success of treatment. The minimum bactericidal concentration (MBC) is defined as the lowest antibiotic concentration that kills 99.9% of the inoculum. This study mainly contained eight different microorganisms, which were Staphylococcus aureus (ATCC 6538), methicillin-resistant Staphylococcus aureus (NCTC 12493), Enterococcus faecalis (NCTC 12697), Escherichia coli (ATCC 8739), Klebsiella pneumoniae (ATCC 43816), Pseudomonas aeruginosa (ATCC CRM 9027), Acinetobacter baumannii (BAA 747), and Candida albicans (ATCC 10231). The bacteria were incubated in the compatible medium at 37 °C overnight.
With “GLLRGVLGAGKKIVCGLSGRC (disulfide 15-21 (inferred)) [Peptide 2057-C, N-terminus modified analogue of Nigrosin-6VL]” the MIC was over 128 µM.
For GLLSGVLGAGKKIVAGLSGRA [Peptide 1924-A], the MIC was over 128 µM.

Same assay, conditions: planktonic E. faecalis NCTC 12697; lowest concentration killing 99.9% of inoculum
“GLLRGVLGAGKKIVCGLSGRC (disulfide 15-21 (inferred)) [Peptide 2057-C, N-terminus modified analogue of Nigrosin-6VL]” was tested, and the MBC was over 128 µM.
GLLSGVLGAGKKIVAGLSGRA [Peptide 1924-A] showed an MBC of over 128 µM.

These sequences were tested on MRSA (NCTC 12493) (assay: microbe, parasite or virus in culture). Conditions: planktonic MRSA NCTC 12493; 37 °C; nine repeats of three independent experiments.
Assay type: cell-based, methicillin-resistant Staphylococcus aureus
Description: as §1
GLLSGVLGAGKKIVAGLSGRA [Peptide 1924-A] showed an MIC of over 128 µM.

Same assay, conditions: planktonic MRSA NCTC 12493; 37 °C; nine repeats of three independent experiments; read-out: MIC
With “GLLRGVLGAGKKIVCGLSGRC (disulfide 15-21 (inferred)) [Peptide 2057-C, N-terminus modified analogue of Nigrosin-6VL]” the MIC was 64 µM.

Same assay, conditions: planktonic MRSA NCTC 12493; lowest concentration killing 99.9% of inoculum
In the case of GLLSGVLGAGKKIVAGLSGRA [Peptide 1924-A], the MBC is reported as over 128 µM.

Same assay, conditions: planktonic MRSA NCTC 12493; lowest concentration killing 99.9% of inoculum; read-out: MBC
Sequence “GLLRGVLGAGKKIVCGLSGRC (disulfide 15-21 (inferred)) [Peptide 2057-C, N-terminus modified analogue of Nigrosin-6VL]” has an MBC of 128 µM.

These sequences were tested on S. aureus (ATCC 6538) (assay: microbe, parasite or virus in culture). Conditions: planktonic S. aureus ATCC 6538; 37 °C; nine repeats of three independent experiments.
Assay type: cell-based, Staphylococcus aureus
Description: as §1
Sequence “GLLRGVLGAGKKIVCGLSGRC (disulfide 15-21 (inferred)) [Peptide 2057-C, N-terminus modified analogue of Nigrosin-6VL]” has an MIC of 128 µM.
For GLLSGVLGAGKKIVAGLSGRA [Peptide 1924-A], the MIC was 128 µM.

Same assay, conditions: planktonic S. aureus ATCC 6538; lowest concentration killing 99.9% of inoculum
With “GLLRGVLGAGKKIVCGLSGRC (disulfide 15-21 (inferred)) [Peptide 2057-C, N-terminus modified analogue of Nigrosin-6VL]” the MBC was over 128 µM.
GLLSGVLGAGKKIVAGLSGRA [Peptide 1924-A] showed an MBC of over 128 µM.

These sequences were tested on E. coli (ATCC 8739) (assay: microbe, parasite or virus in culture). Conditions: planktonic E. coli ATCC 8739; 37 °C; nine repeats of three independent experiments; read-out: MIC.
Assay type: cell-based, Escherichia coli
Description: as §1
“GLLRGVLGAGKKIVCGLSGRC (disulfide 15-21 (inferred)) [Peptide 2057-C, N-terminus modified analogue of Nigrosin-6VL]” gave an MIC of 16 µM.
Sequence GLLSGVLGAGKKIVAGLSGRA [Peptide 1924-A] has an MIC of 64 µM.

Same assay, conditions: planktonic E. coli ATCC 8739; lowest concentration killing 99.9% of inoculum; read-out: MBC
Sequence “GLLRGVLGAGKKIVCGLSGRC (disulfide 15-21 (inferred)) [Peptide 2057-C, N-terminus modified analogue of Nigrosin-6VL]” has an MBC of 32 µM.
With GLLSGVLGAGKKIVAGLSGRA [Peptide 1924-A] the MBC was 128 µM.

The sequences below were run on C. albicans (ATCC 10231) (assay: not given). Conditions: yeast C. albicans ATCC 10231; 37 °C; nine repeats of three independent experiments.
Assay type: cell-based, Candida albicans
Description: as §1
“GLLRGVLGAGKKIVCGLSGRC (disulfide 15-21 (inferred)) [Peptide 2057-C, N-terminus modified analogue of Nigrosin-6VL]” gave an MIC of over 128 µM.
With GLLSGVLGAGKKIVAGLSGRA [Peptide 1924-A] the MIC was 64 µM.

Same assay, conditions: yeast C. albicans ATCC 10231; lowest concentration killing 99.9% of inoculum
“GLLRGVLGAGKKIVCGLSGRC (disulfide 15-21 (inferred)) [Peptide 2057-C, N-terminus modified analogue of Nigrosin-6VL]” gave an MBC of over 128 µM.
Work on GLLSGVLGAGKKIVAGLSGRA [Peptide 1924-A] yielded an MBC of 128 µM.

What follows are sequences tested on A. baumannii (BAA 747) (assay: microbe, parasite or virus in culture). Conditions: planktonic A. baumannii BAA 747; 37 °C; nine repeats of three independent experiments.
Assay type: cell-based, Acinetobacter baumannii
Description: as §1
With “GLLRGVLGAGKKIVCGLSGRC (disulfide 15-21 (inferred)) [Peptide 2057-C, N-terminus modified analogue of Nigrosin-6VL]” the MIC was over 128 µM.
Work on GLLSGVLGAGKKIVAGLSGRA [Peptide 1924-A] yielded an MIC of over 128 µM.

Same assay, conditions: planktonic A. baumannii BAA 747; lowest concentration killing 99.9% of inoculum
Work on “GLLRGVLGAGKKIVCGLSGRC (disulfide 15-21 (inferred)) [Peptide 2057-C, N-terminus modified analogue of Nigrosin-6VL]” yielded an MBC of over 128 µM.
GLLSGVLGAGKKIVAGLSGRA [Peptide 1924-A] was tested, and the MBC was over 128 µM.

What follows are sequences tested on horse red blood cells (assay: not given). Conditions: horse red blood cells in PBS, 37 °C, 2 h, absorbance 570 nm; positive control 0.1% Triton.
Sequence “GLLRGVLGAGKKIVCGLSGRC (disulfide 15-21 (inferred)) [Peptide 2057-C, N-terminus modified analogue of Nigrosin-6VL]” has an HC10 of over 256 µM.
GLLSGVLGAGKKIVAGLSGRA [Peptide 1924-A] gave an HC10 of over 256 µM.

Each sequence was assayed on Yeast (assay: Geometric mean of MICs and TI value). Conditions: C. albicans ATCC 10231.
Assay type: cell-based, Candida albicans
Protocol: (§2) The therapeutic potential of antimicrobial agents was valued based on their selectivity toward bacteria in reference to erythrocytes. The TI value was calculated from the results of antibacterial and haemolysis experiments of peptides using the following formula:TI value = HC10 / GMMICs.
(§3) GM was the geometric mean of MICs against all tested bacteria.
For “GLLRGVLGAGKKIVCGLSGRC (disulfide 15-21 (inferred)) [Peptide 2057-C, N-terminus modified analogue of Nigrosin-6VL]”, the “GM (geometric mean of MICs), Yeast” value was 256.00 µM.
With GLLSGVLGAGKKIVAGLSGRA [Peptide 1924-A] the “GM (geometric mean of MICs), Yeast” value was 64.00 µM.

These sequences were tested on K. pneumoniae (ATCC 43816) (assay: microbe, parasite or virus in culture). Conditions: planktonic K. pneumoniae ATCC 43816; 37 °C; nine repeats of three independent experiments; read-out: MIC.
Assay type: cell-based, Klebsiella pneumoniae
Description: as §1
Sequence “GLLRGVLGAGKKIVCGLSGRC (disulfide 15-21 (inferred)) [Peptide 2057-C, N-terminus modified analogue of Nigrosin-6VL]” has an MIC of 64 µM.
With GLLSGVLGAGKKIVAGLSGRA [Peptide 1924-A] the MIC was 64 µM.

Same assay, conditions: planktonic K. pneumoniae ATCC 43816; lowest concentration killing 99.9% of inoculum; read-out: MBC
With “GLLRGVLGAGKKIVCGLSGRC (disulfide 15-21 (inferred)) [Peptide 2057-C, N-terminus modified analogue of Nigrosin-6VL]” the MBC was 128 µM.
For GLLSGVLGAGKKIVAGLSGRA [Peptide 1924-A], the MBC was 128 µM.

Each sequence was assayed on P. aeruginosa (ATCC CRM 9027) (assay: microbe, parasite or virus in culture). Conditions: planktonic P. aeruginosa ATCC CRM 9027; 37 °C; nine repeats of three independent experiments.
Assay type: cell-based, Pseudomonas aeruginosa
Description: as §1
For GLLSGVLGAGKKIVAGLSGRA [Peptide 1924-A], the MIC was 128 µM.

Same assay, conditions: planktonic P. aeruginosa ATCC CRM 9027; 37 °C; nine repeats of three independent experiments; read-out: MIC
“GLLRGVLGAGKKIVCGLSGRC (disulfide 15-21 (inferred)) [Peptide 2057-C, N-terminus modified analogue of Nigrosin-6VL]” showed an MIC of 64 µM.

Same assay, conditions: planktonic P. aeruginosa ATCC CRM 9027; lowest concentration killing 99.9% of inoculum
Work on GLLSGVLGAGKKIVAGLSGRA [Peptide 1924-A] yielded an MBC of over 128 µM.

Same assay, conditions: planktonic P. aeruginosa ATCC CRM 9027; lowest concentration killing 99.9% of inoculum; read-out: MBC
“GLLRGVLGAGKKIVCGLSGRC (disulfide 15-21 (inferred)) [Peptide 2057-C, N-terminus modified analogue of Nigrosin-6VL]” gave an MBC of 128 µM.

These sequences were tested on G− Bacteria (assay: Geometric mean of MICs and TI value). Conditions: geometric mean of MICs against tested Gram-negative bacteria.
Assay type: cell-based
Protocol: as §2, §3
“GLLRGVLGAGKKIVCGLSGRC (disulfide 15-21 (inferred)) [Peptide 2057-C, N-terminus modified analogue of Nigrosin-6VL]” was tested, and the “GM (geometric mean of MICs), G− Bacteria” value was 64.00 µM.
GLLSGVLGAGKKIVAGLSGRA [Peptide 1924-A] was tested, and the “GM (geometric mean of MICs), G− Bacteria” value was 107.63 µM.

These sequences were tested on G+ Bacteria (assay: Geometric mean of MICs and TI value). Conditions: geometric mean of MICs against tested Gram-positive bacteria.
Assay type: cell-based
Protocol: as §2, §3
For “GLLRGVLGAGKKIVCGLSGRC (disulfide 15-21 (inferred)) [Peptide 2057-C, N-terminus modified analogue of Nigrosin-6VL]”, the “GM (geometric mean of MICs), G+ Bacteria” value was 128.00 µM.
In the case of GLLSGVLGAGKKIVAGLSGRA [Peptide 1924-A], the “GM (geometric mean of MICs), G+ Bacteria” value is reported as 203.19 µM.
